What was measured:
M14 = assay: NCI-60 SRB screen; format: cell-based, human; details: Homo sapiens; M14; single dose 10^−5 M; read-out: Growth inhibition (%)
A549/ATCC = assay: NCI-60 SRB screen; format: cell-based, human; details: Homo sapiens, single dose 10^−5 M, read-out: Growth inhibition (%)
RXF 393 = assay: NCI-60 SRB screen; format: cell-based, human; details: Homo sapiens; RXF 393; single dose 10^−5 M; read-out: Growth inhibition (%)
[1] = tested on: panel of 60 cancer cell lines; assay: NCI-60 SRB screen, mean or range over the panel; format: cell-based, human; details: Homo sapiens; mean over the cell lines; single dose 10^−5 M; read-out: Mean growth inhibition (%)
COLO 205 = assay: NCI-60 SRB screen; format: cell-based, human; details: Homo sapiens; COLO 205; single dose 10^−5 M; read-out: Growth inhibition (%)
OVCAR-8 = assay: NCI-60 SRB screen; format: cell-based, human; details: Homo sapiens; OVCAR-8; single dose 10^−5 M; read-out: Growth inhibition (%)
NCI-H522 = assay: NCI-60 SRB screen; format: cell-based, human; details: Homo sapiens; NCI-H522; single dose 10^−5 M; read-out: Growth inhibition (%)
786-0 = assay: NCI-60 SRB screen; format: cell-based; details: Homo sapiens; 786-0; single dose 10^−5 M; read-out: Growth inhibition (%)
HL-60(TB) = assay: NCI-60 SRB screen; format: cell-based, human; details: Homo sapiens; HL-60 (TB); single dose 10^−5 M; read-out: Growth inhibition (%)
UACC-62 = assay: NCI-60 SRB screen; format: cell-based, human; details: Homo sapiens; UACC-62; single dose 10^−5 M; read-out: Growth inhibition (%)
HCC-2998 = assay: NCI-60 SRB screen; format: cell-based, human; details: Homo sapiens; HCC-2998; single dose 10^−5 M; read-out: Growth inhibition (%)
SK-MEL-5 = assay: NCI-60 SRB screen; format: cell-based, human; details: Homo sapiens; SK-MEL-5; single dose 10^−5 M; read-out: Growth inhibition (%)
OVCAR-3 = assay: NCI-60 SRB screen; format: cell-based, human; details: Homo sapiens; OVCAR-3; single dose 10^−5 M; read-out: Growth inhibition (%)
NCI-H226 = assay: NCI-60 SRB screen; format: cell-based, human; details: Homo sapiens; NCI-H226; single dose 10^−5 M; read-out: Growth inhibition (%)
SF-268 = assay: NCI-60 SRB screen; format: cell-based, human; details: Homo sapiens; SF-268; single dose 10^−5 M; read-out: Growth inhibition (%)
NCI-H460 = assay: NCI-60 SRB screen; format: cell-based, human; details: Homo sapiens; NCI-H460; single dose 10^−5 M; read-out: Growth inhibition (%)
UO-31 = assay: NCI-60 SRB screen; format: cell-based, human; details: Homo sapiens; UO-31; single dose 10^−5 M; read-out: Growth inhibition (%)
CAKI-1 = assay: NCI-60 SRB screen; format: cell-based, human; details: Homo sapiens; CAKI-1; single dose 10^−5 M; read-out: Growth inhibition (%)
SW-620 = assay: NCI-60 SRB screen; format: cell-based; details: Homo sapiens; SW-620; single dose 10^−5 M; read-out: Growth inhibition (%)
SK-MEL-28 = assay: NCI-60 SRB screen; format: cell-based; details: Homo sapiens; SK-MEL-28; single dose 10^−5 M; read-out: Growth inhibition (%)
HCT-116 = assay: NCI-60 SRB screen; format: cell-based, human; details: Homo sapiens; HCT-116; single dose 10^−5 M; read-out: Growth inhibition (%)
K-562 = assay: NCI-60 SRB screen; format: cell-based, human; details: Homo sapiens, K562; K-562; single dose 10^−5 M; read-out: Growth inhibition (%)
SK-OV-3 = assay: NCI-60 SRB screen; format: cell-based, human; details: Homo sapiens; SK-OV-3; single dose 10^−5 M; read-out: Growth inhibition (%)
HOP-62 = assay: NCI-60 SRB screen; format: cell-based, human; details: Homo sapiens; HOP-62; single dose 10^−5 M; read-out: Growth inhibition (%)
OVCAR-4 = assay: NCI-60 SRB screen; format: cell-based, human; details: Homo sapiens; OVCAR-4; single dose 10^−5 M; read-out: Growth inhibition (%)
EKVX = assay: NCI-60 SRB screen; format: cell-based, human; details: Homo sapiens, single dose 10^−5 M, read-out: Growth inhibition (%)
TK-10 = assay: NCI-60 SRB screen; format: cell-based, human; details: Homo sapiens; TK-10; single dose 10^−5 M; read-out: Growth inhibition (%)
SN12C = assay: NCI-60 SRB screen; format: cell-based, human; details: Homo sapiens, SN12C; SN 12 C; single dose 10^−5 M; read-out: Growth inhibition (%)
HT-29 = assay: NCI-60 SRB screen; format: cell-based; details: Homo sapiens; HT-29; single dose 10^−5 M; read-out: Growth inhibition (%)
KM12 = assay: NCI-60 SRB screen; format: cell-based, human; details: Homo sapiens; KM12; single dose 10^−5 M; read-out: Growth inhibition (%)
NCI-H23 = assay: NCI-60 SRB screen; format: cell-based, human; details: Homo sapiens; NCI-H23; single dose 10^−5 M; read-out: Growth inhibition (%)
ACHN = assay: NCI-60 SRB screen; format: cell-based; details: Homo sapiens, single dose 10^−5 M, read-out: Growth inhibition (%)
LOX IMVI = assay: NCI-60 SRB screen; format: cell-based, human; details: Homo sapiens, single dose 10^−5 M, read-out: Growth inhibition (%)
HOP-92 = assay: NCI-60 SRB screen; format: cell-based, human; details: Homo sapiens; HOP-92; single dose 10^−5 M; read-out: Growth inhibition (%)
MDA-MB-435 = assay: NCI-60 SRB screen; format: cell-based; details: Homo sapiens, MDA-MB-435, read-out: Growth inhibition (%)
NCI/ADR-RES = assay: NCI-60 SRB screen; format: cell-based, human; details: Homo sapiens, single dose 10^−5 M, read-out: Growth inhibition (%)
UACC-257 = assay: NCI-60 SRB screen; format: cell-based, human; details: Homo sapiens, UACC-257; UACC-275 (so in the source); single dose 10^−5 M; read-out: Growth inhibition (%)
HCT-15 = assay: NCI-60 SRB screen; format: cell-based, human; details: Homo sapiens; HCT-15; single dose 10^−5 M; read-out: Growth inhibition (%)
SR = assay: NCI-60 SRB screen; format: cell-based; details: Homo sapiens, single dose 10^−5 M, read-out: Growth inhibition (%)
NCI-H322M = assay: NCI-60 SRB screen; format: cell-based, human; details: Homo sapiens, single dose 10^−5 M, read-out: Growth inhibition (%)
IGROV1 = assay: NCI-60 SRB screen; format: cell-based, human; details: Homo sapiens, IGROV-1; IGROV1; single dose 10^−5 M; read-out: Growth inhibition (%)
MOLT-4 = assay: NCI-60 SRB screen; format: cell-based; details: Homo sapiens; MOLT-4; single dose 10^−5 M; read-out: Growth inhibition (%)
SK-MEL-2 = assay: NCI-60 SRB screen; format: cell-based, human; details: Homo sapiens; SK-MEL-2; single dose 10^−5 M; read-out: Growth inhibition (%)
SF-295 = assay: NCI-60 SRB screen; format: cell-based, human; details: Homo sapiens; SF-295; single dose 10^−5 M; read-out: Growth inhibition (%)

Compound: COc1ccc(C2NC(=O)C(Cl)c3c2sc2c(F)cccc32)cc1 (centres unmarked) [Compound 4b, 4-Chloro-8-fluoro-1-(4-methoxyphenyl)-1,2-dihydro[1]benzothieno[2,3-c] pyridine-3(4H)-one]
- inhibition at 10 µM (M14): 3.86%
- inhibition at 10 µM (A549/ATCC): 55.5%
- inhibition at 10 µM (RXF 393): 9.68%
- inhibition at 10 µM [1]: 8.66%
- inhibition at 10 µM (COLO 205): -20.5%
- inhibition at 10 µM (OVCAR-8): 2.95%
- inhibition at 10 µM (NCI-H522): 21.7%
- inhibition at 10 µM (786-0): -0.46%
- inhibition at 10 µM (HL-60(TB)): -5.26%
- inhibition at 10 µM (UACC-62): 8.74%
- inhibition at 10 µM (HCC-2998): -6.39%
- inhibition at 10 µM (SK-MEL-5): -0.07%
- inhibition at 10 µM (OVCAR-3): 0.61%
- inhibition at 10 µM (NCI-H226): 7.14%
- inhibition at 10 µM (SF-268): 14.3%
- inhibition at 10 µM (NCI-H460): 31.4%
- inhibition at 10 µM (UO-31): 71.7%
- inhibition at 10 µM (CAKI-1): 17.7%
- inhibition at 10 µM (SW-620): 6.49%
- inhibition at 10 µM (SK-MEL-28): -0.07%
- inhibition at 10 µM (HCT-116): 1.62%
- inhibition at 10 µM (K-562): 31.3%
- inhibition at 10 µM (SK-OV-3): -2.04%
- inhibition at 10 µM (HOP-62): 17.2%
- inhibition at 10 µM (OVCAR-4): 7.51%
- inhibition at 10 µM (EKVX): 23%
- inhibition at 10 µM (TK-10): -38.1%
- inhibition at 10 µM (SN12C): 3.66%
- inhibition at 10 µM (HT-29): -6.98%
- inhibition at 10 µM (KM12): 7.6%
- inhibition at 10 µM (NCI-H23): 6.41%
- inhibition at 10 µM (ACHN): -3.2%
- inhibition at 10 µM (LOX IMVI): 6.46%
- inhibition at 10 µM (HOP-92): 16.4%
- inhibition at 10 µM (MDA-MB-435): 33.7%
- inhibition at 10 µM (NCI/ADR-RES): 9.18%
- inhibition at 10 µM (UACC-257): -6.58%
- inhibition at 10 µM (HCT-15): 14.2%
- inhibition at 10 µM (SR): 39.3%
- inhibition at 10 µM (NCI-H322M): 22%
- inhibition at 10 µM (IGROV1): 4.86%
- inhibition at 10 µM (MOLT-4): 7.88%
- inhibition at 10 µM (SK-MEL-2): -18.3%
- inhibition at 10 µM (SF-295): 1.82%
